# Biological target: T1, TNKS2 (Homo sapiens, UniProt Q9H2K2)
# T1 sequence (Q9H2K2 1-1166): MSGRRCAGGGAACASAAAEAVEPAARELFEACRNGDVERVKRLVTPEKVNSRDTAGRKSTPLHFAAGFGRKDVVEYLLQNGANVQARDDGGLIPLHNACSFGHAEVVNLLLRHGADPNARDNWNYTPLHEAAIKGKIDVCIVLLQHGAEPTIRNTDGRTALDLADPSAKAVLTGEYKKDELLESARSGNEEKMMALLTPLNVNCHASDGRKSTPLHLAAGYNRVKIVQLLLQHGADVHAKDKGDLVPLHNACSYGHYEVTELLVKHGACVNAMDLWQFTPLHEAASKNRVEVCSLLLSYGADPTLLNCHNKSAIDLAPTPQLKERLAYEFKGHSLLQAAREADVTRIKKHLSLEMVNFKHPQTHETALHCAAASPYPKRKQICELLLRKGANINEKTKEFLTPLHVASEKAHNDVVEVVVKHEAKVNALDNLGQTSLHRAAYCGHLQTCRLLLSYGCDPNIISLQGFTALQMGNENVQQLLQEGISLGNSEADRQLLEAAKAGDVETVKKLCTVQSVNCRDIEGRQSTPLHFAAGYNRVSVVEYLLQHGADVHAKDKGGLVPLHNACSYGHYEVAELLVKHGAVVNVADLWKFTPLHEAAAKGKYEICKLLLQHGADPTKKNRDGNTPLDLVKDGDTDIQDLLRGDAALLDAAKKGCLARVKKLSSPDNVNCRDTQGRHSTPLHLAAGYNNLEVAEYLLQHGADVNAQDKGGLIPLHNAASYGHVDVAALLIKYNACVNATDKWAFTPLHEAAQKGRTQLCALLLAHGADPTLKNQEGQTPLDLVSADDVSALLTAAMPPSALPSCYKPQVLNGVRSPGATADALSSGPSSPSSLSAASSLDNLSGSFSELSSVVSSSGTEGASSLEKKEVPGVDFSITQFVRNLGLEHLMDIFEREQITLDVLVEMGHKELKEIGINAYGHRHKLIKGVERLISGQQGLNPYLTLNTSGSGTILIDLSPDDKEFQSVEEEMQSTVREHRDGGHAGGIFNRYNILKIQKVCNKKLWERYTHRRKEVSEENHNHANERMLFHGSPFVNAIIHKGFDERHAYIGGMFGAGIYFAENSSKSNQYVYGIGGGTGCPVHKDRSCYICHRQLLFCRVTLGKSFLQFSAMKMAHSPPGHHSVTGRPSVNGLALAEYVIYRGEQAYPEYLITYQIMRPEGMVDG
# Experiment: Modified TNKS2 Assay 2 (auto-parsylation, [3H]-NAD+ SPA)
# Format: biochemical
# Settings: 6 nM TNKS2, 96 well
row,Compound,IC50
1,"Cc1cc(NC(=O)c2[nH]cnc2C(=O)NCCN2CCCCC2)ccc1NC(=O)c1ccccc1Cl [Example 89, N^5-{4-[(2-chlorobenzoyl)amino]-3-methylphenyl}-N^4-[2-(piperidin-1-yl)ethyl]-1H-imidazole-4,5-dicarboxamide]",50 nM
2,"COc1cc(NC(=O)c2[nH]cnc2C(=O)NCCN2CCCCC2)ccc1NC(=O)c1ccc(F)cc1Cl [Example 97, N^5-{4-[(2-chloro-4-fluorobenzoyl)amino]-3-methoxyphenyl}-N^4-[2-(piperidin-1-yl)ethyl]-1H-imidazole-4,5-dicarboxamide]",5 nM
3,"COc1cc(NC(=O)c2[nH]cnc2C(=O)NCCN(C)C)ccc1NC(=O)c1ccccc1Cl [Example 100, N^5-{4-[(2-chlorobenzoyl)amino]-3-methoxyphenyl}-N^4-[2-(dimethylamino)ethyl]-1H-imidazole-4,5-dicarboxamide]",160 nM
4,"CNC(=O)c1[nH]c(C(C)C)nc1C(=O)Nc1ccc(NC(=O)c2ccc(F)cc2Cl)cc1 [Example 106, N^4-{4-[(2-chloro-4-fluorobenzoyl)amino]phenyl}-2-isopropyl-N^5-methyl-1H-imidazole-4,5-dicarboxamide]",> 10000 nM
5,"CNC(=O)c1nc[nH]c1C(=O)Nc1ccc(NC(=O)c2ccccc2Cl)nc1 [Example 112, N^5-{6-[(2-chlorobenzoyl)amino]pyridin-3-yl}-N^4-methyl-1H-imidazole-4,5-dicarboxamide]",370 nM
6,"CN(C)CCNC(=O)c1nc[nH]c1C(=O)Nc1ccc(NC(=O)c2ccccc2Cl)nc1 [Example 113, N^5-{6-[(2-chlorobenzoyl)amino]pyridin-3-yl}-N^4-[2-(dimethylamino)ethyl]-1H-imidazole-4,5-dicarboxamide]",40 nM

# Further lines, results first:
row,IC50,Compound
1,3400 nM,"COC(=O)c1nc[nH]c1C(=O)Nc1ccc(NC(=O)c2ccccc2Cl)c(C)c1 [Example 86, methyl-5-({4-[(2-chlorobenzoyl)amino]-3-methylphenyl}carbamoyl)-1H-imidazole-4-carboxylate]"
2,500 nM,"COC(=O)c1nc[nH]c1C(=O)Nc1ccc(NC(=O)c2ccc(F)cc2Cl)c(OC)c1 [Example 94, methyl 5-({4-[(2-chloro-4-fluorobenzoyl)amino]-3-methoxyphenyl}carbamoyl)-1H-imidazole-4-carboxylate]"
3,470 nM,"CNC(=O)c1nc[nH]c1C(=O)Nc1ccc(NC(=O)c2ccc(F)cc2Cl)c(OC)c1 [Example 95, N^5-{4-[(2-chloro-4-fluorobenzoyl)amino]-3-methoxyphenyl}-N^4-methyl-1H-imidazole-4,5-dicarboxamide]"
4,40 nM,"COc1cc(NC(=O)c2[nH]cnc2C(=O)NCCN(C)C)ccc1NC(=O)c1ccc(F)cc1Cl [Example 96, N^5-{4-[(2-chloro-4-fluorobenzoyl)amino]-3-methoxyphenyl}-N^4-[2-(dimethylamino)ethyl]-1H-imidazole-4,5-dicarboxamide]"
5,370 nM,"COC(=O)c1nc[nH]c1C(=O)Nc1ccc(NC(=O)c2ccccc2Cl)c(OC)c1 [Example 98, methyl 5-({4-[(2-chlorobenzoyl)amino]-3-methoxyphenyl}carbamoyl)-1H-imidazole-4-carboxylate]"
6,> 10000 nM,"COC(=O)c1nc[nH]c1C(=O)Nc1ccc(NC(=O)c2ccc(F)cc2)c(OC)c1 [Example 102, methyl 5-({4-[(4-fluorobenzoyl)amino]-3-methoxyphenyl}carbamoyl)-1H-imidazole-4-carboxylate]"

# Reference: US9884063B2, “Amido-substituted azole compounds” (Bayer Pharma Aktiengesellschaft, priority 2014, dated 2018)
